Laboratory results published in the NIST ThermoML archive (doi:10.1021/je301001g).

Settings: for surface tension liquid-gas: Maximal bubble pressure; for mass density / electrical conductivity / viscosity: 101.33 kPa, Liquid; for mass density: Buoyancy - hydrostatic balance; for electrical conductivity: MP522 conductivity instrument; for viscosity: Capillary tube (Ostwald / Ubbelohde) method

CCCCNC(=O)C[n+]1ccn(CC)c1.O=S(=O)([N-]S(=O)(=O)C(F)(F)F)C(F)(F)F
Settings	electrical conductivity [S/m]	mass density [kg/m3]	surface tension liquid-gas [mN/m]	viscosity [mPa·s]
283.15 K	0.00606	1431	32.7	–
288.15 K	0.00985	1427	32.4	–
293.15 K	0.0153	1422.7	32.2	–
298.15 K	0.0233	1418	31.8	777.5
303.15 K	0.0332	1413.5	31.6	517.3
308.15 K	0.0467	1409	31	359
313.15 K	0.0639	1404.4	30.8	255.2
318.15 K	0.0854	1399.7	30.5	187.9
323.15 K	0.111	1395.4	30.3	138.9
328.15 K	0.141	1391	29.8	106
333.15 K	0.177	1386.7	29.4	82.1
338.15 K	0.219	1382.3	29	64.4
343.15 K	–	–	–	53.3
348.15 K	–	–	–	43.5
353.15 K	–	–	–	35.8
358.15 K	–	–	–	30
363.15 K	–	–	–	25.3
